Activity calls are given as the source filed them. No cut-off for these calls is given here.
Columns and labels:
[1] = test system: Candida albicans; test: Fungicidal activity against Candida albicans isolate 7 assessed as fungal killing incubated for 48 hrs followed by plating on SD agar plate; format: functional; details: read-out: MFC99.9
[2] = test system: Candida albicans; test: Antifungal activity against Candida albicans isolate 5 assessed as reduction in fungal growth incubated for 48 hrs by broth microdilution method; format: functional
[3] = test system: Candida tropicalis; test: Fungicidal activity against Candida tropicalis ATCC 28707 assessed as fungal killing incubated for 48 hrs followed by plating on SD agar plate; format: functional; details: read-out: MFC99.9
[4] = Toxicity in Swiss mouse assessed as relative lung weight at 20 mg/kg, ip measured after 24 hrs (reference value: 6.35 +/- 0.68 g); format: organism-based; details: in vivo
[5] = test system: Candida albicans; test: In vivo antifungal activity in Swiss mouse infected with Candida albicans ATCC 10231 assessed as reduction in fungal load in spleen at 1 mg/kg, ip administered at 2, 24 and 48 hrs post-infection and measured per gm of organ at 24 hrs post-last dose (reference value: 2.34); format: functional; details: time 72 hrs
[6] = test system: Candida albicans; test: In vivo antifungal activity in Swiss mouse infected with Candida albicans ATCC 10231 assessed as reduction in fungal load in liver at 0.5 mg/kg, ip administered at 2, 24 and 48 hrs post-infection and measured per gm of organ at 24 hrs post-last dose (reference value: 1.80); format: functional; details: time 72 hrs
[7] = Toxicity in Swiss mouse assessed as relative heart weight at 20 mg/kg, ip measured after 24 hrs (reference value: 4.75 +/- 0.60 g); format: organism-based; details: in vivo
[8] = Toxicity in Swiss mouse assessed as relative kidney weight at 3 mg/kg, ip measured after 24 hrs (reference value: 14.91 +/- 0.99 g); format: organism-based; details: in vivo
[9] = Toxicity in Swiss mouse infected with Candida albicans ATCC 10231 assessed as effect on heart weight at 10 mg/kg, ip administered at 2, 24 and 48 hrs post-infection and measured at 24 hrs after last dose; format: organism-based; details: in vivo, 72 h
[10] = test system: Candida albicans; test: Antibiofilm activity against Candida albicans ATCC 10231 assessed as reduction in biofilm formation at 0.24 to 7.81 ug/ml by crystal violet staining based spectrophotometric analysis; format: functional, organism-based; details: dose 0.24-7.81 µg/ml
[11] = test system: Candida albicans; test: Antifungal activity against Candida albicans ATCC 10231 assessed as inhibition of yeast to hypha morphological transition at 15.6 ug/ml measured upto 72 hrs by microscopic analysis; format: functional, organism-based; details: dose 15.6 µg/ml, time hrs <=72
[12] = Toxicity in Swiss mouse assessed as relative heart weight at 10 mg/kg, ip measured after 24 hrs (reference value: 4.75 +/- 0.60 g); format: organism-based; details: in vivo
[13] = test system: Candida albicans; test: Fungicidal activity against Candida albicans ATCC 10231 assessed as fungal killing incubated for 48 hrs followed by plating on SD agar plate; format: functional; details: read-out: MFC99.9
[14] = test system: Candida albicans; test: Antifungal activity against Candida albicans isolate 6 assessed as reduction in fungal growth incubated for 48 hrs by broth microdilution method; format: functional
[15] = Toxicity in Swiss mouse assessed as relative spleen weight at 0.5 mg/kg, ip measured after 24 hrs (reference value: 4.02 +/- 0.59 g); format: organism-based; details: in vivo
[16] = Toxicity in Swiss mouse assessed as relative kidney weight at 20 mg/kg, ip measured after 24 hrs (reference value: 14.91 +/- 0.99 g); format: organism-based; details: in vivo
[17] = test system: Candida albicans; test: Fungicidal activity against Candida albicans isolate 5 assessed as fungal killing incubated for 48 hrs followed by plating on SD agar plate; format: functional; details: read-out: MFC99.9
[18] = Toxicity in Swiss mouse assessed as relative lung weight at 3 mg/kg, ip measured after 24 hrs (reference value: 6.35 +/- 0.68 g); format: organism-based; details: in vivo
[19] = Toxicity in Swiss mouse assessed as death of organism at 0.5 to 20 mg/kg, ip measured for 24 hrs; format: organism-based; details: in vivo, dose 0.5-20 mg/kg
[20] = test system: Candida tropicalis; test: Antifungal activity against Candida tropicalis ATCC 28707 assessed as reduction in fungal growth incubated for 48 hrs by broth microdilution method; format: functional
[21] = Toxicity in Swiss mouse assessed as relative heart weight at 0.5 mg/kg, ip measured after 24 hrs (reference value: 4.75 +/- 0.60 g); format: organism-based; details: in vivo
[22] = test system: Candida albicans; test: In vivo antifungal activity in Swiss mouse infected with Candida albicans ATCC 10231 assessed as reduction in fungal load in spleen at 0.5 mg/kg, ip administered at 2, 24 and 48 hrs post-infection and measured per gm of organ at 24 hrs post-last dose (reference value: 2.34); format: functional; details: time 72 hrs
[23] = test system: Candida albicans; test: In vivo antifungal activity in Swiss mouse infected with Candida albicans ATCC 10231 assessed as reduction in fungal load in kidney at 1 mg/kg, ip administered at 2, 24 and 48 hrs post-infection and measured per gm of organ at 24 hrs post-last dose (reference value: 2.47); format: functional; details: time 72 hrs
[24] = Toxicity in Swiss mouse assessed as relative heart weight at 1 mg/kg, ip measured after 24 hrs (reference value: 4.75 +/- 0.60 g); format: organism-based; details: in vivo
[25] = Toxicity in Swiss mouse assessed as body weight at 20 mg/kg, ip measured after 24 hrs (reference value: 36.25 +/- 0.31 g); format: organism-based; details: in vivo
[26] = test system: Candida albicans; test: Fungicidal activity against Candida albicans ATCC 18804 assessed as fungal killing incubated for 48 hrs followed by plating on SD agar plate; format: functional; details: read-out: MFC99.9
[27] = Toxicity in Swiss mouse assessed as relative lung weight at 10 mg/kg, ip measured after 24 hrs (reference value: 6.35 +/- 0.68 g); format: organism-based; details: in vivo
[28] = Toxicity in Swiss mouse assessed as relative kidney weight at 0.5 mg/kg, ip measured after 24 hrs (reference value: 14.91 +/- 0.99 g); format: organism-based; details: in vivo
[29] = test system: Candida albicans; test: Antifungal activity against Candida albicans ATCC 18804 assessed as reduction in fungal growth incubated for 48 hrs by broth microdilution method; format: functional
[30] = Toxicity in Swiss mouse assessed as relative heart weight at 3 mg/kg, ip measured after 24 hrs (reference value: 4.75 +/- 0.60 g); format: organism-based; details: in vivo
[31] = Toxicity in Swiss mouse assessed as relative spleen weight at 3 mg/kg, ip measured after 24 hrs (reference value: 4.02 +/- 0.59 g); format: organism-based; details: in vivo
[32] = test system: Candida albicans; test: Fungicidal activity against Candida albicans isolate 11 assessed as fungal killing incubated for 48 hrs followed by plating on SD agar plate; format: functional; details: read-out: MFC99.9
[33] = Toxicity in Swiss mouse assessed as relative kidney weight at 1 mg/kg, ip measured after 24 hrs (reference value: 14.91 +/- 0.99 g); format: organism-based; details: in vivo
[34] = test system: Candida albicans; test: Antifungal activity against Candida albicans isolate 3 assessed as reduction in fungal growth incubated for 48 hrs by broth microdilution method; format: functional
[35] = test system: Candida tropicalis; test: Antifungal activity against Candida tropicalis ATCC 28707 assessed as reduction in fungal growth incubated for 48 hrs in presence of ergosterol by broth microdilution method; format: functional
[36] = test system: Nakaseomyces glabratus; test: Antifungal activity against Candida glabrata ATCC 2001 assessed as reduction in fungal growth incubated for 48 hrs by broth microdilution method; format: functional
[37] = test system: Candida albicans; test: Antibiofilm activity against Candida albicans ATCC 10231 assessed as reduction in mature biofilm at 125 ug/ml incubated for 48 hrs by crystal violet staining based spectrophotometric analysis relative to control; format: functional

With `[Cl-].[N-]=[N+]=NCCCCCCCCCCCCOCCCc1ccc[n+](Cc2ccccc2)c1` the MFC [1] was 3.9 µg/mL, the MIC [2] was 7.8 µg/mL and the MFC [3] was 15.6 µg/mL. For the same molecule, the Activity [4] was 5.38 g, the Activity [5] was 0 log10CFU and the Activity [6] was 0 log10CFU. The Activity [7] was 4.93 g, the Activity [8] was 14.73 g and the Activity [9] was “Non-Toxic”. For the same molecule, the Activity [10] was “Active”, the Activity [11] was “Active” and the Activity [12] was 4.95 g. It also gave an MFC [13] of 7.8 µg/mL, an MIC [14] of 15.6 µg/mL and an Activity [15] of 3.85 g. It also gave an Activity [16] of 15.79 g, an MFC [17] of 7.8 µg/mL and an Activity [18] of 5.19 g. For the same molecule, the Activity [19] was “Non-Toxic”, the MIC [20] was 7.8 µg/mL and the Activity [21] was 5.75 g. For the same molecule, the Activity [22] was 0 log10CFU, the Activity [23] was 0 log10CFU and the Activity [24] was 5.39 g. For the same molecule, the Activity [25] was 32.5 g, the MFC [26] was 31.2 µg/mL and the Activity [27] was 6.01 g. For the same molecule, the Activity [28] was 14.41 g, the MIC [29] was 7.8 µg/mL and the Activity [30] was 4.45 g. The Activity [31] was 4.07 g, the MFC [32] was 7.8 µg/mL and the Activity [33] was 13.58 g. The MIC [34] was 7.8 µg/mL, the MIC [35] was 15.6 µg/mL and the MIC [36] was 7.8 µg/mL. It also gave an inhibition at 125 µg/mL [37] of 40%.

— ChEMBL document CHEMBL4732126, “Design, synthesis, and biodistribution studies of new analogues of marine alkaloids: Potent in vitro and in vivo fungicidal agents against Candida spp” (Eur J Med Chem, 2021)
